Legend:
malignant tumors = settings: radiolabeled versions (such as I-124), known from earlier studies; cited from earlier work
colon tumors = test: microPET/microCT imaging of I-124-NM404 in colon tumor model in rats (PIRC rat); format: in vivo
Text: FIG. 1 provides a 2D microCT projection of an excised PIRC rat colon filled with 2% barium (A) and ^124I-NM404 microPET image in a PIRC Rat (B) and the fused microPET/microCT image (C). Fiducial marker (M), Tumor (arrow).
Multiple tumors have been detected protruding into the colon lumen.

accumulation in excised colon on microPET image (colon tumors; PIRC rat colon with multiple tumors, microPET): one area of accumulation only | accumulation in benign polyps (colon tumors; all other colon tumors, which turned out to be benign polyps): did not show accumulation
Compound: C[N+](C)(C)CCOP(=O)([O-])OCCCCCCCCCCCCCCCCCCc1ccc(I)cc1 [NM404, 18-(p-Iodophenyl)octadecyl phosphocholine]
accumulation in malignant versus benign tumors (malignant tumors): accumulate in malignant tumors, but not in benign tumors such as polyps | accumulation in colon tumors, fused microCT/microPET image (colon tumors; adenocarcinoma versus other colon tumors): seen only in a tumor that later proved to be an adenocarcinoma
